Three compounds from patent US20090298934A1, “Diamidine Inhibitors of TDP1” (GOVERNMENT OF THE US, AS REPRESENTED BY THE SECRET, priority 2006, published 2009) can be followed below.

Assay [1] concerns the target T1, Tdp1 (Homo sapiens, UniProt Q9NUW8).
T1 construct: His tag with thrombin site and linker (printed […] = X1; made in house; host or cells: E. coli BL21 (Novagen), plasmid pHN1910 in vector pET 15b
Briefly: Tdp1 gel assay (32P-labeled 14Y / D14Y / 14Y-CC substrates, denaturing PAGE, densitometry). The format is biochemical. Conditions: for Ability to inhibit Tdp1 activity in the 14Y substrate (gel): 25 nM 14Y, 1 ng Tdp1, 20 min, pH 8.0, 25° C.; for Conversion half-time (t) of 14Y: 1.9 min in the absence of drug. The source says:
FIG. 7. […] A, Schematic representation of the Tdp1 biochemical assay. The partially duplex […] D14Y or single stranded 14Y was used as a substrate. ^32P-Radiolabeling (*) was at the 5′ terminus of the 14-mer strand. Tdp1 catalyzes the hydrolysis of the 3′-phosphotyrosine bond and converts 14Y and D14Y to an oligonucleotide with 3′-phosphate, 14P or D14P respectively. […] Arrows indicate the 3′-phosphate oligonucleotide product (14P) that runs quicker than the corresponding tyrosyl oligonucleotide substrate (14Y) in a denaturing PAGE. The duplex D14Y substrate and D14P product are detected on the gel by their corresponding labeled single strands (14Y and 14P), as they are no longer annealed under the denatured conditions.
FIG. 9. […] Aliquots were taken at the indicated times (min). Reaction products were analyzed by denaturing PAGE. B, densitometry analysis of the gel shown in A. Tdp1 activity measured as the percentage of DNA substrate 14Y converted to 14P (Left panel) or substrate 14Y remaining (Right panel) as a function of reaction time. […] A representative gel is shown. D, densitometry analysis of the gel shown in C. Tdp1 activity was calculated as the percentage of DNA substrate 14Y converted to 14P.
FIG. 10. […] A, Sequences of the oligonucletotide substrates 14Y and 14Y-CC, which differ in their 3′-terminal bases being a -TT or a -CC that is linked to the phosphotyrosine. B, Reactions (100 μl) containing either 25 nM 14Y or 14Y-CC and 5 ng of Tdp1 was incubated at pH 8.0 at 25° C. Aliquots were taken at the indicated times (min). Reaction products were analyzed by denaturing PAGE. C, densitometry analysis of the gel shown in B. Tdp1 activity measured as the percentage of DNA substrates 14Y or 14Y-CC converted to their corresponding products as a function of reaction time. […] A representative gel is shown. E, densitometry analysis of the gel shown in D. Tdp1 activity was calculated as the percentage of DNA substrates 14Y or 14Y-CC converted to their product.
FIG. 11. […] R; common chemical moiety. […] Samples were separated on a 20% Urea-PAGE gel and visualized.
Preparation of Tdp1 substrates: HPLC purified oligonucleotides N14Y (Plo et al., (2003) DNA Repair (Amst) 2(10):1087-1100) were labeled at their 5′-end with [γ-^32P]-ATP (Perkin-Elmer Life Science Co., Boston, Mass.) by incubation with 3′-phosphatase free T4 polynucleotide kinase (Roche applied Science, Indianapolis, Ind.) according to the manufacturer's protocols. Unincorporated nucleotides were removed by Sephadex G-25 spin-column chromatography (Mini Quick Spin Oligo Columns, Roche, Indianapolis, Ind.). For the production of the oligonucleotide duplexes D14Y, N14Y was mixed with the complementary oligonucleotide in equal molar ratios in annealing buffer (10 mM Tris-HCl pH 7.5, 100 mM NaCl, 10 mM MgCl2), heated to 96° C., and allowed to cool down slowly (over 2 h) to room temperature. Tdp1 assays: Unless indicated otherwise, Tdp1 assays are performed in 20 μl mixtures containing 50 mM Tris-HCl, pH 8.0, 80 mM KCl, 2 mM EDTA, 1 mM dithiothreitol (D)T, and 40 μg/ml bovine serum albumin (BSA). For initial screening of Tdp1 inhibitors, 25 nM of 5′-^32P-labeled substrate (D14Y) is reacted with 1 ng Tdp1 (≈0.7 nM) in the absence or presence of inhibitor for 20 min at 25° C. Reactions are stopped by addition of 60 μl of gel loading buffer (98% (v/v) formamide, 1% (w/v) xylene cyanol, 1% (w/v) bromophenol blue). Twelve μl of aliquots are resolved in 20% denaturing polyacrylamide (AccuGel, National Diagnostics, Atlanta, Ga.) (19:1) gel containing 7 M urea. After drying, gels are exposed overnight to PhosphorImager screens (Molecular Dynamics, Sunnyvale, Calif.). Screens are scanned, and images are obtained with the Molecular Dynamics software (Sunnyvale, Calif.). Densitometry analyses are performed using ImageQuant 5.2 software package (Amersham Biosciences, Piscataway, N.J.).

For assay [2], the target named is T1, Tdp1. Briefly: High-throughput electrochemiluminescent (ECL) Tdp1 assay. It is filed as biochemical.
Excerpt: High-throughput electrochemiluminescene assay developed to identify novel Tdp1 inhibitors. […] This leads to a loss of the chemiluminescence signal. Positive hits for potential Tdp1 inhibitors prevent this loss of signal. C, Signal response curve in the presence of increasing concentrations (nM) of Tdp1.
A, Graph representing the effect of 1981 compounds in the NCI-DTP diversity set on Tdp1 activity at 10 pM. Each dot indicates a signal value for a tested sample. The substrate chemiluminescence (Arbitrary units; A.U.) in the absence of Tdp1 averages at 16313±1084 (n=200; where “n” indicates the number of samples). In the presence of Tdp1 the loss of signal averages at 8784±559 (n=100). The effect of 1981 compounds screened is represented. Positive Tdp1 inhibitors prevent the loss of signal. […] Vanadate at 10 mM was used for comparison.

T1 sequence (Q9NUW8 whole entry): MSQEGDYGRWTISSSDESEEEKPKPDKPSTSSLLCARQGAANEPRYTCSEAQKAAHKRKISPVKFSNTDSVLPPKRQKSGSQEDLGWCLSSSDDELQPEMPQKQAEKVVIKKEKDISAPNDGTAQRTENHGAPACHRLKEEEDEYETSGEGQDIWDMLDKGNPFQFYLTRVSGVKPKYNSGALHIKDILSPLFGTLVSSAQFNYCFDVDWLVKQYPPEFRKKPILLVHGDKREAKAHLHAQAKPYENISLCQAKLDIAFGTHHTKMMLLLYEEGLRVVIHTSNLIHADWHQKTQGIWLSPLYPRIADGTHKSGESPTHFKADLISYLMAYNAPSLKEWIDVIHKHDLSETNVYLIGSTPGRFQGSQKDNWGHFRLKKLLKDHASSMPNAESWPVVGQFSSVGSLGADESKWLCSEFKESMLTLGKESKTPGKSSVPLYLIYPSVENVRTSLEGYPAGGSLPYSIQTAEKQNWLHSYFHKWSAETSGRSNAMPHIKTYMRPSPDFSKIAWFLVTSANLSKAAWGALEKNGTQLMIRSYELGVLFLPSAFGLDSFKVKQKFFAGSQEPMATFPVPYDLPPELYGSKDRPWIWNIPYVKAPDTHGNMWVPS

As to `CC(=O)NCC(=O)O.CC(=O)NCC(=O)O.N=C(N)c1ccc(N=NNc2ccc(C(=N)N)cc2)cc1` [Berenil, reference compound], the “Ability to inhibit Tdp1 activity in the 14Y substrate (gel)” value on Tdp1 [1] is recorded as “some activity, albeit at a high concentration (300 μM)”.
For `CN(C)C1C(O)=C(C(=O)NCN2CCN(C(=N)NC(=N)N)CC2)C(=O)C2(O)C(O)=C3C(=O)c4c(O)cccc4C(C)(O)C3CC12` (centres unmarked) [Compound (a)], the half-inhibitory concentration (IC50) on Tdp1 [1] (IC50 ds14Y, double-stranded 14Y substrate) was 19 µM; at Tdp1 [1] (IC50 ss14Y, single-stranded 14Y substrate), 12 µM.
Regarding `N=C(N)c1ccc(-c2ccc(-c3ccc(C(=N)N)cc3)o2)cc1` [Compound (b), 2,5-di-(4-phenylamidine)furan], at Tdp1 [1], the “Ability to inhibit Tdp1 activity in the 14Y substrate (gel)” value is “exhibits an inhibition of Tdp1 activity at 30 μM”. The same compound displayed an inhibition at 30 µM at Tdp1 [1] (30 μM compound, 0.1 ng of Tdp1, 14Y) of 50%. Further, at Tdp1 [1] (30 μM compound, Tdp1 increased to 1 ng, 14Y), the “Inhibition of Tdp1 activity after increasing Tdp1” value is on record as “almost completely reversed”. Further, the “Conversion half-time (t) of 14Y” value stood at 2.7 min at Tdp1 [1] (30 μM compound) and 4.4 min on Tdp1 [1] (60 μM compound). Further, at Tdp1 [1] (dependence on reaction time and Tdp1 concentration), the “Type of Tdp1 inhibition” value was “reversible inhibition”. Besides, at Tdp1 [2] (10 μM compound, without Tdp1 16313±1084, with Tdp1 8784±559), the “ECL signal value (substrate chemiluminescence)” value turned out to be 16910 A.U. At Tdp1 [2] (at 10 μM), this compound displayed an inhibition at 10 µM of 100%.
